This test concerns S. Typhimurium PhoP-promoter GFP reporter counterscreen, fluorescence, 4 h. As to the kind of experiment: S. Typhimurium GFP fluorescence modified counterscreen for PhoP regulon inhibitor project dose response (AID 1981). Background: The purpose of a counterscreen is to sort out artefacts and off-target activity.
Consider `C=C1c2cccc(O)c2C(O)=C2C(=O)[C@]3(O)C(O)=C(C(N)=O)C(=O)[C@@H](N(C)C)[C@@H]3[C@@H](O)[C@H]12`, for which the concentration for half-maximal inhibition (IC50) (in general, the point on the concentration scale where inhibition reaches its midpoint) was 0.39 µM. Then `Cc1ccc(C(=O)O)cc1N=Cc1cc(Br)cc(Br)c1O`, with 105 µM. As for `C[C@H]1O[C@@H](n2cc(F)c(=O)[nH]c2=O)[C@H](O)[C@@H]1O`, the 50% inhibitory concentration (IC50) was 11.8 µM. With `Cc1cc(C(=O)N/N=C/c2ccc([N+](=O)[O-])s2)n[nH]1` the figure was 36.7 µM; with `Nc1cc2nsnc2cc1Br`, 30.1 µM. With `CC(C)Oc1ccc(Cc2cnc(N)nc2N)cc1` the figure was 54.2 µM; with `COC(=O)c1c(NC(=O)c2ccc([N+](=O)[O-])o2)sc2c1CCN(C(C)C)C2`, 55.8 µM. Turning to `O=C(N/N=C/c1cc(Cl)ccc1O)c1cccnc1`, the 50% inhibitory concentration (IC50) is 35 µM.

As to `CN1CCN(C(c2ccccn2)c2cc(Cl)c3cccnc3c2O)CC1` (stereo unspecified), the IC50 was 67.3 µM. Then `CCCCCOc1ccc(CSC(=N)N)cc1[N+](=O)[O-]`, with 86.8 µM; and `OC(c1cc(-c2ccc(C(F)(F)F)cc2)nc(C(F)(F)F)c1)C1CCCCN1` (stereo unspecified), with 42.2 µM. Then `O=C(N/N=C/c1cc2c3c(c1O)CCCN3CCC2)c1ccccc1O`, with 135 µM; and `Nc1ccc(Nc2ccccc2)cc1`, with 92.1 µM. Then `COc1cccc(N(C(=O)c2ccco2)c2nc(-c3sc(NC(=O)c4ccco4)nc3C)cs2)c1`, with 126 µM; and `CCn1cc(C(=O)NCCO)c(=O)c2cc(F)c(N3CCN(C)CC3)cc21`, with 29.9 µM. For the molecule `C=CCNc1ncnc2c1[nH]c1ccccc12`, the IC50 was 106 µM. On to `N=c1n(CC(=O)c2ccc(Br)s2)c2ccccc2n1Cc1ccccc1`, for which the IC50 is 131 µM. Then `Clc1ccc(CNCc2cccs2)cc1Cl`, with 123 µM; and `COc1c(N2CCN[C@H](C)C2)c(F)cc2c(=O)c(C(=O)O)cn(C3CC3)c12`, with 0.34 µM; and `CCCCCC(CC(=O)NO)C(=O)NC(C(=O)N1CCCC1CO)C(C)C` (stereo unspecified), with 33.3 µM. Consider `C[CH2][Hg][S]c1ccccc1C(=O)O`, for which the IC50 was 28.1 µM. Then `NC1CCN(c2nc3c(cc2F)c(=O)c(C(=O)O)cn3-c2ccc(F)cc2F)C1` (stereo unspecified), with 0.53 µM; and `CCn1cc(C(=O)O)c(=O)c2cnc(N3CCNCC3)nc21`, with 58.4 µM; and `COc1c(N2CCN(C(=S)NC3CC4CCC3C4)C(C)C2)c(F)cc2c(=O)c(C(=O)O)cn(C3CC3)c12` (stereo unspecified), with 5.38 µM. As to `Oc1c(Cl)cc(Cl)c2cccnc12`, the IC50 is 17.9 µM.

On to `CCCCCOc1ccc(Br)cc1CSC(=N)N`, for which the half-maximal inhibitory concentration (IC50) was 41.4 µM. With `O=CN/N=C/c1c(O)ccc2ccccc12` the figure was 59.6 µM; with `CCCCCCCCNC(C)C(O)c1ccc(SC(C)C)cc1` (stereo unspecified), 121 µM; with `O=C(N/N=C/c1ccc(O)cc1O)C(=O)N/N=C/c1ccc(O)cc1O`, 51 µM. On to `Oc1ccc(CN2CCN(Cc3ccccc3)CC2)c2cccnc12`, for which the IC50 is 59.2 µM.

Consider `O=C(N/N=C/c1cc([N+](=O)[O-])ccc1O)c1ccncc1`, for which the IC50 is 101 µM.

For the molecule `CCCCCCCCCCCCCCCC[n+]1ccc(/C=N/O)cc1`, the IC50 is 30.6 µM. With `OCCNCc1c(OCc2ccc(Cl)cc2)ccc2ccccc12` the figure was 105 µM; with `C/C(=N\Nc1nc2ccccc2[nH]1)c1ccccn1`, 29.3 µM. Then `CCn1cc(C(=O)O)c(=O)c2cc(F)c(N3CCN(C(=S)NC(=O)c4cccc(C)c4)CC3)cc21`, with 25.4 µM; and `O=[N+]([O-])c1cc(CN2CCCC2)c2cccnc2c1O`, with 57.1 µM. Turning to `O=C1OC(/C(=C\Nc2ccc(F)cc2F)[N+](=O)[O-])c2ccccc21` (stereo unspecified), the concentration for half-maximal inhibition (IC50) is 18.2 µM. Then `O=C(Cc1ccccc1)Nc1cccc(N2C(=O)C=CC2=O)c1`, with 142 µM; and `CCn1cc(C(=O)O)c(=O)c2cc(F)c(N3CCN(C(=S)NC(=O)c4ccccc4F)CC3)cc21`, with 79.4 µM. `COc1ccc(C(=O)Cn2nc(CNc3ccc(Br)cc3)[n+]3c2CCCCC3)cc1`: the IC50 was 106 µM. For `O=C(N/N=C/c1cc(Cl)ccc1O)c1ccncc1`, the IC50 was 31.2 µM.

In the case of `C[C@H]1c2cccc(O)c2C(O)=C2C(=O)[C@]3(O)C(O)=C(C(N)=O)C(=O)[C@@H](N(C)C)[C@@H]3[C@@H](O)[C@@H]21`, the IC50 is 1.54 µM.

Turning to `CCN(CC)S(=O)(=O)c1cccc(C(=O)N/N=C/c2ccc(O)c(O)c2O)c1`, the IC50 was 78.9 µM.

Consider `O=S(=O)(Nc1cc(Sc2ncn[nH]2)c(O)c2ccccc12)c1ccccc1`, for which the IC50 was 149 µM.

`CCn1cc(C(=O)O)c(=O)c2cc(F)c(N3CCN(C(=O)Nc4ccccc4)CC3)cc21`: the concentration for half-maximal inhibition (IC50) was 27.7 µM. Then `N=c1n(Cc2ccccc2)c2ccccc2n1CC(O)COc1ccc(Cl)cc1Cl` (stereo unspecified), with 49.4 µM; and `O=C(C[n+]1cc(-c2ccc(Cl)cc2)n2c1CCC2)Nc1nc(-c2ccc(F)cc2)cs1`, with 68.2 µM; and `COc1cccc(/C=N/Nc2ncc(C(F)(F)F)cc2Cl)c1O`, with 34.7 µM. Take `CN1CCN(CCCN2c3ccccc3Sc3ccc(Cl)cc32)CC1`: the half-maximal inhibitory concentration (IC50) was 148 µM.

As to `CCn1cc(C(=O)NCCN(C)C)c(=O)c2cc(F)c(N3CCN(C)CC3)cc21`, the IC50 was 123 µM.

As to `C#CCOCCOCCOCCNc1nc(N2CCN(C(=O)CCCCCCCCCCNC(=O)[C@H](CO)n3cc(CCCCCN)nn3)CC2)nc(N2CCN(C(=O)CCCCCCCCCCNC(=O)[C@H](CCCN=C(N)N)n3cc(C[C@@H](C)CC)nn3)CC2)n1`, the half-inhibitory concentration (IC50) was 90.3 µM. With `CNC[C@H](CC1CCCCC1)NC[C@H](Cc1ccccc1)NCCC12CC3CC(CC(C3)C1)C2` the figure was 19.6 µM; with `CCCCCCCCCn1c2c(c(=N)c3c1CCC3)CCCC2`, 53.8 µM; with `CN1CCN(c2cc3c(cc2F)c(=O)c(C(=O)O)cn3CCF)CC1`, 0.51 µM.

Take `Cc1nnc(N/N=C/c2ccccn2)[nH]c1=O`: the half-inhibitory concentration (IC50) was 21.2 µM. In the case of `O=C(Nc1ccccc1)Nc1ccc(Cl)c([N+](=O)[O-])c1`, the IC50 was 39.2 µM.

Turning to `O=C(O)CCN1C(=O)CC(N2C(=O)/C(=C/c3ccc(Cl)cc3)SC2=S)C1=O` (stereo unspecified), the IC50 was 22.5 µM.

As for `CN(C)C1C(=O)C(C(N)=O)=C(O)C2(O)C(=O)C3=C(O)c4c(O)cccc4C(C)(O)C3CC12` (stereo unspecified), the IC50 was 0.67 µM. In the case of `CCCCCCCCCCCCCCCC[n+]1cccc2ccccc21`, the IC50 was 19.5 µM. Then `Clc1ccc(CN2CCC(c3nc4ccc(Cl)cc4[nH]3)CC2)cc1`, with 51.7 µM. With `CCCNC(=O)c1cn(CC)c2cc(N3CCN(C)CC3)c(F)cc2c1=O`, the IC50 is 40.5 µM. With `O=C(N/N=C/c1c[nH]c2ccccc12)c1cc(-c2ccc3ccccc3c2)n[nH]1`, the half-maximal inhibitory concentration (IC50) was 68.6 µM. `O=c1[nH]c2ccccc2n2c(=S)[nH]nc12`: the concentration for half-maximal inhibition (IC50) is 29.1 µM. With `COc1ccc(Nc2cc(C)c3c(O)cccc3n2)cc1` the figure was 70 µM; with `CC(C)COc1ccc(Cc2cnc(N)nc2N)cc1`, 127 µM; with `CC(=O)NC(c1ccc(C)cc1)c1cc([N+](=O)[O-])c2cccnc2c1O` (stereo unspecified), 37.9 µM. With `c1cnc2c(c1)ccc1cccnc12` the figure was 40 µM; with `O=C(/C=C/c1ccco1)Oc1cc(Br)cc(/C=N/NC(=O)c2ccccc2O)c1`, 134 µM; with `NC1=NC[C@@H](Cc2ccc(O)cc2)N1CCCCC1CCCCC1`, 40.2 µM. Then `COc1c(N2CCN(C(=S)NCc3ccccc3)C(C)C2)c(F)cc2c(=O)c(C(=O)O)cn(C3CC3)c12` (stereo unspecified), with 31.9 µM. `O=C(N/N=C/c1cccc([N+](=O)[O-])c1O)c1cccs1`: the IC50 is 20.4 µM. For the molecule `CCOC(=O)N1CCN(C(=O)c2cn(CC)c3cc(N4CCN(C)CC4)c(F)cc3c2=O)CC1`, the 50% inhibitory concentration (IC50) is 8.51 µM. Then `COC(=O)C1C(O)C(C)C(O)C(C)/C=C\C=C(/C)C(=O)Nc2c(C)c(OC(C)=O)c3c(c2O)C(=O)C(C)=C2OCOC(=C23)/C(C)=C/C(C)(O)C(O)C(C)C1O` (stereo unspecified), with 23.5 µM; and `O=C(OCC1O[C@@H](OC(=O)c2cc(O)c(O)c(O)c2)[C@@H](OC(=O)c2cc(O)c(O)c(O)c2)[C@@H](OC(=O)c2cc(O)c(O)c(O)c2)[C@@H]1OC(=O)c1cc(O)c(O)c(O)c1)c1cc(O)c(O)c(O)c1` (stereo partly specified), with 83.1 µM; and `CCn1cc(C(=O)O)c(=O)c2cc(F)c(N3CCN(C(=S)Nc4ccc(OC)cc4)CC3)cc21`, with 7.49 µM. On to `CCCCOc1ccc(CSC(=N)N)cc1[N+](=O)[O-]`, for which the 50% inhibitory concentration (IC50) was 131 µM. On to `Nc1nc(N)c(Cc2ccc(Cl)cc2Cl)c(N)n1`, for which the half-inhibitory concentration (IC50) is 149 µM.

Regarding `O=[N+]([O-])c1cc(/C=N/Nc2nc3ccccc3[nH]2)c(O)cc1O`, the IC50 was 32.5 µM. Then `CCCC(=O)NC(c1cccs1)c1cc([N+](=O)[O-])c2cccnc2c1O` (stereo unspecified), with 30.1 µM; and `CCc1ccc(NC(=O)C[n+]2cc(-c3ccc(C)cc3)n3c2CCC3)cc1`, with 146 µM. With `Nc1nc2ccccc2n1CCOc1ccccc1Cl` the figure was 104 µM. With `O=C(N/N=C/c1coc2ccc(Cl)cc2c1=O)c1cc(O)cc(O)c1` the figure was 137 µM; with `CCn1cc(C(=O)O)c(=O)c2cc(F)c(N3CCN(C(=S)NC(=O)c4ccc(OC)cc4)CC3)cc21`, 13.4 µM.

Regarding `CCn1cc(C(=O)O)c(=O)c2cc3c(cc21)OCO3`, the IC50 was 67.5 µM. In the case of `Oc1c(C(c2ccccn2)N2CCOCC2)ccc2cccnc12` (stereo unspecified), the IC50 is 118 µM. Then `COc1c(N2CCN(C(=S)Nc3ccc(F)cc3)C(C)C2)c(F)cc2c(=O)c(C(=O)O)cn(C3CC3)c12` (stereo unspecified), with 2.68 µM; and `COc1cccc(/C=N\NC(=O)Cn2nnc3ccccc32)c1O`, with 75.1 µM; and `O=c1[nH]cc(F)c(=O)[nH]1`, with 4.17 µM. With `CN(Cc1ccccc1)CC(O)COc1ccc(CNCc2ccc(Cl)s2)cc1` (stereo unspecified) the figure was 117 µM; with `Oc1cc(Cl)ccc1Oc1ccc(Cl)cc1Cl`, 0.68 µM. Take `O=C(N/N=C/c1ccc(Sc2ccccn2)o1)c1cc2ccccc2cc1O`: the IC50 was 110 µM. With `O=C(Oc1c(Cl)cc(Cl)c2cccnc12)c1ccco1`, the concentration for half-maximal inhibition (IC50) is 17.3 µM. With `COc1cc(Cc2cc(N)nc(N)n2)cc(OC)c1OC` the figure was 1 µM; with `c1ccc2c(NC3=NCCS3)cccc2c1`, 112 µM; with `COc1ccc(OCC(O)CNc2ccc(Br)cc2)cc1` (stereo unspecified), 20 µM. Then `NC(Cc1cc(O)c(O)cc1O)C(=O)O` (stereo unspecified), with 93 µM.

For the origin of these results see PubChem BioAssay AID1981 (Southern Research Specialized Biocontainment Screening …, 2009).
